Test results taken from US7812035B2, “4-substituted piperidines, and methods of use thereof” (Sepracor Inc., priority 2001, dated 2010).
Where two headings read alike, the source gives them in different places.

Legend:
Assay type in all cases: cell-based
serotonin transporter = serotonin transporter (UniProt P31645); experiment: 5-HT uptake inhibition (monoamine transporter antagonism, methods of Gu et al); settings: 1 μM compound
[1] = target: norepinephrine transporter (Homo sapiens, UniProt P23975); experiment: NE uptake inhibition (monoamine transporter antagonism, methods of Galli et al); settings: read-out: NE uptake (% inhibition @1 μM)
norepinephrine transporter, sequence (P23975 whole entry): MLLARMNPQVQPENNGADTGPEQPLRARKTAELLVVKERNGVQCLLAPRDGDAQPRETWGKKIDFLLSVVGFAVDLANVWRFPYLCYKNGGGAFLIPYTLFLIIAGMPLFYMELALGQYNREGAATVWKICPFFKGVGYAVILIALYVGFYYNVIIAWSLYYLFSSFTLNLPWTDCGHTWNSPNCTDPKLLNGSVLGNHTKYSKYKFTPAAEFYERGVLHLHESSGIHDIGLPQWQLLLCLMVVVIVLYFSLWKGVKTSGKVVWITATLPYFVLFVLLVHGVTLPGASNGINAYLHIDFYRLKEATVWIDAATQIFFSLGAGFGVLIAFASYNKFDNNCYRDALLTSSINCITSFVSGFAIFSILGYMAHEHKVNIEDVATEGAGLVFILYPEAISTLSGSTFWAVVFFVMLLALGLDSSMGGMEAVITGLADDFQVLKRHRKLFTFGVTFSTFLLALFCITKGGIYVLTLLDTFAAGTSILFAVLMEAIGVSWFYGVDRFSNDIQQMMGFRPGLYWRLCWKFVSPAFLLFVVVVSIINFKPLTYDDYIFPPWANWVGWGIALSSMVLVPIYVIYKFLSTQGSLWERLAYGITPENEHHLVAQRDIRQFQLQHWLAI

dopamine transporter = experiment: DA uptake inhibition (monoamine transporter antagonism, methods of Gu et al); settings: 1 μM compound

| inhibition at 1 µM ([1]; 1 μM compound) | Compound | 5-HT uptake (% inhibition @1 μM) (serotonin transporter) | inhibition at 1 µM [1] | DA uptake (% inhibition @1 μM) (dopamine transporter) |
| --- | --- | --- | --- | --- |
| – | OC1CCN(CC2(c3ccc(Cl)cc3)CCC2)CC1 [Compound 2, 1-[1-(4-Chloro-phenyl)-cyclobutylmethyl]-piperidin-4-ol] | 36% | 65% | 88% |
| 85% | FC(F)(F)c1cc(COC2CCN(CC3(c4ccc(Cl)cc4)CCC3)CC2)cc(C(F)(F)F)c1 [Compound 5] | 14% | – | 61% |
| – | FC(F)(F)c1ccc(COC2CCN(CC3(c4ccc(Cl)cc4)CCC3)CC2)cc1 [Compound 6, [1-(4-chloro-phenyl)-cyclobutylmethyl]-4-(4-trifluoromethyl-benzyloxy)-piperidine] | 9% | 78% | 85% |
| – | FC(F)(F)c1ccc(OC2CCN(CC3(c4ccc(Cl)cc4)CCC3)CC2)cc1 [Compound 8, 1-[1-(4-chloro-phenyl)-cyclobutylmethyl]-4-(4-trifluoromethal-phenoxy)-piperidine] | 56% | 38% | 25% |
| – | OCC1CCN(CC2(c3ccc(Cl)cc3)CCC2)CC1 [Compound 10, {1-[1-(4-chloro-phenyl)-cyclobuylmethyl]-piperidin-4-yl}-methanol] | 21% | 62% | 70% |
| 97% | FC(F)(F)c1ccc(COCC2CCN(CC3(c4ccc(Cl)cc4)CCC3)CC2)cc1 [Compound 11] | 87% | – | 97% |
| – | FC(F)(F)c1ccc(OCC2CCN(CC3(c4ccc(Cl)cc4)CCC3)CC2)cc1 [Compound 13, 1-[1-(4-Chloro-Phenyl)-Cyclobutylmethyl]-4-(4-Trifluoromethyl-Phenoxymethyl)-Piperidine] | 83% | 97% | 94% |
